Legend:
[1] = tested on: patients with active ulcerative colitis; assay: Placebo-controlled randomized double-blind multicenter parallel group comparative study (Japic CTI-132294), rectal budesonide foam; assay type: in vivo, human
Procedure: Dose responsiveness, efficacy and safety are investigated for patients with active ulcerative colitis when budesonide 2 mg is rectally administered once a day or twice a day for 6 weeks by a double-blind comparative study with placebo as a control (clinical trial number: Japic CTI-132294). For the trial, an aerosol with fixed dose injection type for rectal injection (rectal foaming agent) is used as a test drug, in which 25 mL (1.35 g) of white creamy foam containing 2 mg of budesonide is released by one injection. As a remission induction therapeutic agent of ulcerative colitis in active phase where the lesion is confined to the rectum and sigmoid colon, the aerosol for rectal injection is approved in Europe at a dosage and dose of budesonide 2 mg once a day (trade name: Budenofalk 2 mg/dose rectal foam, manufactured by Dr. Falk Pharma GmbH). […] The subjects are ulcerative colitis patients in active phase, and are divided into a group administered the test drug once a day (hereinafter, once a day group, 54 cases), a group administered the test drug twice a day (hereafter, twice a day group, 55 cases), and a group administered the control drug (hereinafter, placebo group, 56 cases). The test drug or control drug is rectally administered twice a day (once in the morning and once in the evening), after defecation, if possible. However, for the once a day group of test drug, a control drug is administered in the morning and a test drug is administered in the evening. The number of injections per dose is one, the administration period is 6 weeks, and the drug is administered until the evening before the evaluation. The dose of budesonide in each group is 2 mg/day for the once a day group, 4 mg/day for the twice a day group, and 0 mg/day for the placebo group. Furthermore, in order to exclude patients whose symptoms improve due to the action of rectal administration (improvement example due to placebo effect) or patients who develop complaints resulting from rectal administration, a pre-observation period in which the control drug is administered twice a day (once in the morning and once in the evening) for one week under a single-blind test is set prior to this administration. […] The point estimate of the odds ratio for the placebo group (95% confidence interval on both sides) in the logistic regression model with model as main effect model, remission rate as objective variable, and administration group and assignment factor as explanatory variables is 3.994 (1.734 to 9.711) in the once a day group, and 3.674 (1.594 to 8.930) in the twice a day group. The lower limit value of 95% confidence interval on both sides exceeds 1 in both groups. […] In addition, the difference point estimate (95% confidence interval on both sides) from the placebo group is 22.8% (4.3% to 39.3%) in the once a day group, 30.5% (12.3% 46.0%) in the twice a day group. Significant differences are observed in the once a day group and twice a day group as compared with the placebo group. The results are illustrated in Table 1 and FIG. 1. In the table and figure, “budesonide once a day administration group” illustrates the result of once a day group, and “budesonide twice a day administration group” illustrates the result of twice a day group, respectively. Patients with MMDAI endoscopic score of 0 are evaluated as mucosal healing. […] In addition, the difference point estimate (95% confidence interval on both sides) from the placebo group is 18.1% (4.8% to 31.3%) in the once a day group, 40.9% (25.2% to 54.2%) in the twice a day group. Significant differences are observed in the once a day group and twice a day group as compared with the placebo group. […]

[2] = tested on: patients with active ulcerative colitis; assay: as above; assay type: in vivo, human; remark: listed apart in the source
[3] = 2 mg once or twice a day, 6 weeks
[4] = budesonide 2 mg once a day, 6 weeks
[5] = budesonide 2 mg twice a day, 6 weeks
[6] = once a day group, 55 analysis target cases
[7] = twice a day group, 56 analysis target cases

CCCC1O[C@@H]2C[C@H]3[C@@H]4CCC5=CC(=O)C=C[C@]5(C)[C@H]4[C@@H](O)C[C@]3(C)[C@]2(C(=O)CO)O1 (mixture of isomers) [Budesonide, (+)-[(RS)-16α,17α-Butylidenedioxy-11β,21-dihydroxy-1,4-pregnadiene-3,20-dione]]
adverse events due to administration of the test drug [1, 3]: serum cortisol decrease and serum corticotropin decrease occurs | serious adverse events or severe adverse events [1, 3]: are not occurred | incidence of adverse events, twice a day group compared with once a day group ([1]; 2 mg per dose, 6 weeks): increased | tolerability to patients of ulcerative colitis ([1]; 2 mg rectal administration once a day or twice a day for 6 weeks): acceptable | mucosal healing rate (proportion of subjects with MMDAI endoscopic score of 0) [1, 4]: 23.6% | mucosal remission rate (proportion of subjects with MMDAI endoscopic score of 1 or less) [1, 4]: 69.1% | remission rate (MMDAI: bloody stool score 0, endoscopic score 1 or less, stool frequency score 0 or decrease of 1 point or more from week 0) ([1]; budesonide 2 mg rectal foam once a day, 6 weeks): 50.9% | remission rate (MMDAI: bloody stool score 0, endoscopic score 1 or less, stool frequency score 0 or decrease of 1 point or more from week 0) ([1]; budesonide 2 mg rectal foam twice a day, 6 weeks): 48.2% | mucosal healing rate (proportion of subjects with MMDAI endoscopic score of 0) [1, 5]: 46.4% | mucosal remission rate (proportion of subjects with MMDAI endoscopic score of 1 or less) [1, 5]: 76.8% | mucosal healing rate, point estimate of proportion difference from placebo group ([1]; once a day group, 6 weeks): 18.1% | mucosal remission rate, point estimate of proportion difference from placebo group ([1]; once a day group, 6 weeks): 22.8% | point estimate of the odds ratio versus the placebo group, mucosal healing rate (logistic regression) ([1]; once a day group, 6 weeks): 5.143 | point estimate of the odds ratio versus the placebo group, remission rate (logistic regression) ([1]; once a day group, 6 weeks): 3.994 | incidence of adverse events related to glucocorticoids ([1]; twice a day group compared with once a day group): increase in the incidence of adverse events related to glucocorticoids is not observed | mucosal healing rate, point estimate of proportion difference from placebo group ([1]; twice a day group, 6 weeks): 40.9% | mucosal remission rate, point estimate of proportion difference from placebo group ([1]; twice a day group, 6 weeks): 30.5% | point estimate of the odds ratio versus the placebo group, mucosal healing rate (logistic regression) ([1]; twice a day group, 6 weeks): 15.553 | point estimate of the odds ratio versus the placebo group, remission rate (logistic regression) ([1]; twice a day group, 6 weeks): 3.674 | Case (subjects in mucosal remission, endoscopic score 1 or less) [2, 6]: 38 | Case (subjects with mucosal healing, endoscopic score 0) [2, 6]: 13 | Case (subjects in mucosal remission, endoscopic score 1 or less) [2, 7]: 43 | Case (subjects with mucosal healing, endoscopic score 0) [2, 7]: 26

From patent US12064509B2, “Enema for rectal application” (Dr. Falk Pharma GmbH, priority 2015, dated 2024)
